Where two headings read alike, the source gives them in different places.
Legend:
[1] = 37° C., assumed based on previous studies; read-out: Indo-1 dissociation constant (Kd); cited from earlier work
HSCs [2] = assay: Calcium concentration of HSCs treated with metabolic inhibitors; format: cell-based, mouse
[3] = tested on: human progenitor/stem cells; conditions: literature report; cited from earlier work
murine AHR = target: T1, murine AHR (Mus musculus, UniProt P30561); conditions: literature report; cited from earlier work
T1 sequence (P30561 10-848): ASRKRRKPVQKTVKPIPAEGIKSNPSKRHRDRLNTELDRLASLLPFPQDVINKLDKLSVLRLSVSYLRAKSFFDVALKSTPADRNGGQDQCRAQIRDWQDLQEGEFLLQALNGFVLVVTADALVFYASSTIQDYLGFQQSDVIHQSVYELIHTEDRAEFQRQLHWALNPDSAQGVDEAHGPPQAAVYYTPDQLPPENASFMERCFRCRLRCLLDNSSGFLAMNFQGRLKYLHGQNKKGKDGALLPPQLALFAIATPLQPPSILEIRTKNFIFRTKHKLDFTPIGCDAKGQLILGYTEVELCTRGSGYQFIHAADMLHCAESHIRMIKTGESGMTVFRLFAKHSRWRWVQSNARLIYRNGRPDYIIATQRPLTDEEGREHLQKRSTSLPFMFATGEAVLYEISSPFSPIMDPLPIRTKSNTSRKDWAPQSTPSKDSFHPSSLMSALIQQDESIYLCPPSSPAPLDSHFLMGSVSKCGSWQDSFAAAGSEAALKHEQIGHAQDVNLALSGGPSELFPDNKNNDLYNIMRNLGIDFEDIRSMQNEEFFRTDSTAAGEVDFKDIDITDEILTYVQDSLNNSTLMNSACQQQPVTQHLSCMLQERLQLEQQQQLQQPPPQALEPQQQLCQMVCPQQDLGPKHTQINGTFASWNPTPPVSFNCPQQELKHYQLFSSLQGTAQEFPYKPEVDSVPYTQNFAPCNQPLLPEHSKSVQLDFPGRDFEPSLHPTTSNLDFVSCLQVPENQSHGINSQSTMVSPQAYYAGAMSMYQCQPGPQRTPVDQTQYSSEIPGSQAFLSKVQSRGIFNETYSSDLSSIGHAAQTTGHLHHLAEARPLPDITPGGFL

murine HSCs = conditions: literature report; cited from earlier work
HSCs [4] = assay: Competitive transplantation of cultured HSCs into irradiated recipient mice (donor chimerism); format: in vivo, mouse; conditions: 10% of culture transplanted
Experimental: Long term LT-HSCs cultures were carried out using Ca^2+-free DMEM (U.S. Biologicals) reconstituted with 4.5 g/L glucose and 1.1 g/L sodium bicarbonate at pH 7.4. Complete media was prepared with Ca^2+-free DMEM supplemented with 1× StemPro34 SFM (Invitrogen), 10 mM HEPES, 200 ng/mL of recombinant m-SCF and 30 ng/mL m-TPO (Peptrotech, Rocky Hill, N.J.). Media of various calcium concentrations was prepared as serial dilutions from stock complete media at 2 mM. Cultures were initiated with 3000-4000 purified HSCs (LSK+CD48−F1t3−CD150+) and cultured in round bottom 96 well plates with 150 uL of media in 5% O2 at 37° C. Half of the media volume was changed every 3 days and split 1:2 every 7 days. Cultures were counted at the time of phenotypic flow cytometric percentage analysis to determine phenotypic HSC counts at the end of culture. Based on calculations, HSC yields were expressed as phenotypic HSC at the end of culture divided by phenotypic HSC count at the start of culture.
All transplant experiments were initiated with LT-HSC cultures consisting of CD45.1 donor HSCs. […]
To test HSC function, irradiated recipient mice were competitively transplanted with 10% of the cultures, either at initiation or after 2 weeks of culture, and analyzed 15 weeks after transplantation. […] Donor contribution correlated with calculated phenotypic HSC cell dose transplanted (FIG. 2D). […]

[5] = purified HSCs treated 15 min, compared to DMSO control

Structure (SMILES): Cc1ccc(N(CC(=O)O)CC(=O)O)c(OCCOc2cc(-c3cc4ccc(C(=O)O)cc4[nH]3)ccc2N(CC(=O)O)CC(=O)O)c1 [Indo-1]
- Kd [1]: 0.237 µM

Structure (SMILES): O=C(O)CI [iodoacetic acid]
- Cai^2+ of HSCs (HSCs [2]): increased

Structure (SMILES): CC(C)n1cnc2c(NCCc3ccc(O)cc3)nc(-c3csc4ccccc34)nc21 [SR1, stemregenin 1]
- expansion of human progenitor/stem cells capable of repopulating irradiated immunodeficient mice [3]: led to expansion
- inhibition of murine AHR (murine AHR): does not inhibit
- expansion of murine HSCs (murine HSCs): does not lead to expansion

Structure (SMILES): CC[C@H]1/C=C/C=C/C[C@@H](C)[C@H](O)[C@@](C)(O)C(=O)[C@@H](C)[C@H](O)[C@@H](C)C(=O)[C@@H](C)[C@H](O)[C@@H](C)/C=C/C(=O)O[C@@H]2[C@H](C)[C@H](CC1)O[C@]1(CC[C@H](C)[C@H](C[C@@H](C)O)O1)[C@H]2C [oligomycin]
- Cai^2+ of HSCs (HSCs [2]; [5]): not inhibition of mitochondrial respiration increased

Structure (SMILES): N#CC(C#N)=NNc1ccc(OC(F)(F)F)cc1 [FCCP]
- Cai^2+ of HSCs at higher doses (HSCs [2]; higher doses of the mitochondrial inhibitors, 15 min): further reduction
- Cai^2+ of HSCs (HSCs [2]; [5]): not inhibition of mitochondrial respiration increased

Structure (SMILES): O=C(O)/C(S)=C/c1ccc(I)cc1 [PD150606, (Z)-3-(4-Iodophenyl)-2-mercapto-2-propenoic acid]
- competitive repopulation capacity (HSCs [4]; PD150606 25 μM added to high calcium (2.0 mM) 2-week HSC cultures): increased competitive repopulation capacity
- competitive repopulation capacity (HSCs [4]; PD150606 25 μM added to low calcium (0.02 mM) 2-week HSC cultures): no effect

From patent US20190062709A1, “METHODS AND COMPOSITIONS FOR MAINTENANCE OF HEMATOPOIETIC STEM CELLS WITH PRESERVATION OF SELF-RENEWAL CAPACITY” (The Trustees of Columbia University in the City of New York, priority 2017, published 2019)
